Source: patent publication US6943279B1, “Amino polyol amine oxidase polynucleotides and related polypeptides and methods of use” (priority 1999, dated 2005)

Columns and labels:
Maize coleoptiles = test: Effect of FB1 and AP1 on maize coleoptiles; assay type: cell-based; parameters: key to Injury of maize coleoptiles: + = brown necrotic discoloration of coleoptile; − = no symptoms (same as water control); details: for Injury of maize coleoptiles: 2 days dark 28° C., then 3 days light
Method: Maize coleoptiles from 4 day dark-grown germinated maize seeds were excised above the growing point and placed in 96-well microtiter plates in the presence of 60 microliters of sterile distilled water containing FB1 or AP1 at approximately equimolar concentrations of 1.5, 0.5, 0.15, 0.05, 0.015, 0.005, 0.0015, or 0.0005 millimolar, along with water controls. After 2 days in the dark at 28° C. the coleoptiles were placed in the light and incubated another 3 days.

BMS cells = test: Effect of FB1 and AP1 on maize tissue cultured cells (Black Mexican Sweet, BMS); assay type: cell-based; details: for concentration at which growth of BMS cells was inhibited: 1 week, liquid culture, 96-well plates
Method: FB1 or AP1 at various concentrations was added to suspensions of BMS cells growing in liquid culture medium in 96-well polystyrene plates. After 1 week the cell density in wells was observed under low power magnification and growth of toxin-treated wells was compared to control wells that received water. […] This represents an approximate 100-fold difference in toxicity to maize tissue cultured cells. […] AP1 was not tested in that study, however.

APAO = APAO activity of crude cell-free extract, TLC; assay type: biochemical, Exophiala spinifera
Method: For analysis of APAO activity, an alternative method was used. Equal volumes of sample and ^14C-AP1 (1 mg/ml, pH 8, 50 mM sodium phosphate) were incubated at room temperature for one to six days. Analytical thin-layer chromatography was then carried out on C60 HPK silica gel plates (Whatman #4807-700; 10×10 cm; 0.2 mm thick). After application of from 0.1 to 2 μl of aqueous sample, the plates were air-dried and developed in CHCl3:MeOH:CH3COOH:H20 (55:36:8:1). Plates were then air dried, and exposed to Phosphorlmager screen (Molecular Dynamics) or autoradiographic film. A Storm™ Phosphorlmager (Molecular Dynamics) was used to scan the image produced on the screen.
A cell-free extract that contains the deaminase activity was obtained by subjecting substrate-induced Exophiala spinifera cells to disruption using a Bead Beater™ in 50 mM Na-phosphate, pH 8.0, and recovering the cell-free supernatant by centrifugation and 0.45 micron filtration. Catabolic activity is assayed by incubating extracts with AP1 (hydrolyzed fumonisin BI backbone) or “^4C-labelled AP1 with the extract and evaluating by TLC on C18 or C60 silica. […] Other amine-containing substrates were tested for modification by the crude extract. […] Preparative amounts of the product, named 2-OP, have also been purified and analyzed by C13 nmr.

APAO enzyme = assay type: biochemical, Exophiala spinifera; details: 1 mM substrate; pH 8.0, room temperature
Method: The following assay was used to determine the substrate specificity of the APAO enzyme. […] The APAO enzyme was recombinant enzyme produced,as GST fusion in E. coli, purified over a glutathione affinity column and cleaved with thrombin to remove the GST. All components were mixed at room temperature. The initial rate was determined in a spectrophotometer at 572 nm over one minute by absorbance units/second (BLANK). Ten microliters of APAO at 70 ug/ml was added and mixed. The initial rate was again determined at 572 nm over one minute in absorbance units/second (SAMPLE). The rates were converted to absorbance units/minute. The BLANK value was subtracted from the SAMPLE value. The absorbance units were converted to μM H2O2 wherein 1 μM H2O2 equals 0.138 absorbance units at pH 8.0.

Lemna tissues = details: AP1 versus FB1; cited from earlier work
tomato = details: cited from earlier work
maize callus = details: solid medium; cited from earlier work
[1] = Pichia expression of trAPAO, TLC assay; assay type: biochemical, Pichia pastoris; details: pellet suspensions and lysates; 6 days room temperature
Method: The Pichia culture fluids and pellets were assayed for APAO activity as described earlier.
The 50 μl cell pellets were resuspended in 150 μl cold 5OmM Na-phosphate, pH 8.0. and divided into two fresh 500 μl tubes. One tube was kept on ice with no treatment, the pellet suspension, and one tube was used for lysis. An equal volume of 0.1 mm zirconia-silica beads was added to each tube. The tubes were BeadBeatT™ for 15 seconds then cooled on ice 5 minutes. This was repeated three times. The crude lysate was then transferred to another tube for assay or lysate suspension.
The TLC assays were performed as follows, the samples are 1) pellet suspensions; 10 μl; 2) lysate suspensions; 10 μl; 3) media controls-mixed 5 μl media with 5 μl crude fungal enzyme; 10 μl; 4) positive control-used crude fungal enzyme undiluted; 10 μl; 5) substrate control-used 50 mM Na-phosphate, pH8.0; 10 μl. […]
A positive TLC result is obtained if an additional radioactive spot appears at a lower Rf of the produced AP1 modification earlier identified as 2-OP, a deaminated product of AP1. In samples #6 and #52 (without intron) the AP1-modifying enzyme activity (conversion of AP1 to 2-OP) was detected in pellet suspensions and pellet lysates, although the majority of activity was associated with the pellet suspensions. […]

Row | Molecule | Injury of maize coleoptiles (Maize coleoptiles; 1.5 mM) | Injury of maize coleoptiles (Maize coleoptiles; .0005 mM) | Injury of maize coleoptiles (Maize coleoptiles; .0015 mM) | Injury of maize coleoptiles (Maize coleoptiles; .005 mM) | Injury of maize coleoptiles (Maize coleoptiles; .015 mM) | Injury of maize coleoptiles (Maize coleoptiles; .05 mM) | Injury of maize coleoptiles (Maize coleoptiles; .15 mM) | Injury of maize coleoptiles (Maize coleoptiles; .5 mM) | difference in toxicity between FB1 and AP1 to maize coleoptiles (Maize coleoptiles; AP1 versus FB1) | concentration at which growth of BMS cells was inhibited (BMS cells) | difference in toxicity to maize tissue cultured cells (BMS cells; AP1 versus FB1) | time to complete conversion to 2-OP (APAO; pH 9) | RATE (APAO enzyme) | less toxic than FB1 in Lemna tissues (Lemna tissues) | reduction in toxicity to tomato by AP1 versus FB1 (tomato) | modification by the crude extract (APAO; crude cell-free extract of induced Exophiala spinifera, TLC) | concentration giving significant inhibition of maize callus (maize callus) | APAO activity (conversion of AP1 to 2-OP) in Pichia transformants [1]
1 | CCCC[C@@H](C)[C@@H](O)[C@@H](O)C[C@@H](C)C[C@H](O)CCCC[C@@H](O)C[C@H](O)[C@H](C)N [AP1] | + | − | − | − | − | − | − | − | ≥ 30 fold | 40000 nM | ~100 fold | 30 min | 0.8876 μM H2O2/min | approx. 40 fold | ~100 fold |  |  | 
2 | CCCC[C@@H](C)[C@@H](OC(=O)C[C@@H](CC(=O)O)C(=O)O)[C@H](C[C@@H](C)C[C@H](O)CCCC[C@@H](O)C[C@H](O)[C@H](C)N)OC(=O)C[C@@H](CC(=O)O)C(=O)O [FB1, fumonisin B1] | + | − | − | − |  | + | + | + |  | 400 nM |  |  | 0.1429 μM H2O2/min |  |  | not modified | 1400 nM | 
3 | trAPAO: truncated, but still functional APAO (SEQ ID NO: 6) (protein, listed as Exophiala spinifera) DNVADVVVVGAGLSGLETARKVQAAGLSCLVLEAMDRVGGKTLSVQSGPGRTTINDLGAAWINDSNQSEVSRLFERFHLEGELQRTTGNSIHQAQDGTTTTAPYGDSLLSEEVASALAELLPVWSQLIEEHSLQDLKASPQAKRLDSVSFAHYCEKELNLPAVLGVANQITRALLGVEAHEISMLFLTDYIKSATGLSNIFSDKKDGGQYMRCKTGMQSICHAMSKELVPGSVHLNTPVAEIEQSASGCTVRSASGAVFRSKKVVVSLPTTLYPTLTFSPPLPAEKQALAENSILGYYSKIVFVWDKPWWREQGFSGVLQSSCDPISFARDTSIDVDRQWSITCFMVGDPGRKWSQQSKQVRQKSVWDQLRAAYENAGAQVPEPANVLEIEWSKQQYFQGAPSAVYGLNDLITLGSALRTPFKSVHFVGTETSLVWKGYMEGAIRSGQRGAAEVVASLVPAA |  |  |  |  |  |  |  |  |  |  |  |  |  |  |  |  |  | functions correctly in degrading AP1
